Measured values as given in ChEMBL document CHEMBL4402559, “Structure-Based Design and Pharmacokinetic Optimization of Covalent Allosteric Inhibitors of the Mutant GTPase KRASG12C” (J Med Chem, 2020).
Activity calls are given as the source filed them. The calls are words filed in the database; no cut-off is given here.

Legend:
Lu-99 cell line [1] = assay: Antiproliferative activity against human LU99 cells expressing KRAS G12C mutant assessed as cell growth inhibition cultured in soft agar medium containing compounds and supplemented with fresh medium for every 7 days by 3D soft agar proliferation assay; format: functional, cell-based
Mus musculus = assay: Decrease in DUSP6 mRNA level in tumor of athymic NU-Fox1nu mouse xenografted with human MIAPaca2 cells at 10 to 100 mg/kg, po qd measured at 3 to 24 hrs post-treatment by qRT-PCR analysis; format: functional, organism-based
GTPase KRas = GTPase KRas (Homo sapiens, UniProt P01116, G12C); assay: Inhibition of GDP bound biotinylated human C-terminal Avi/His6-tagged KRAS G12C mutant (1 to 166 residues) expressed in Escherichia coli BL21 (DE3) assessed as reduction in SOS1-mediated GDP/GTP nucleotide exchange by preventing recognition between KRAS G12C mutant and Ras binding domain of N-terminal Avi/GST-tagged Raf-1 (51 to 149 residues) preincubated for 4 hrs followed by SOS1 and GTPgammaS addition by FRET assay
[2] = Distribution coefficient, log D of compound at pH 7.4; format: physicochemical; settings: octanol/water, read-out: logD
[3] = Intrinsic clearance in rat hepatocytes assessed per 10^-6 cells; format: ADME, cell-based, Hepatocyte
[4] = Intrinsic clearance in human liver microsomes; format: ADME, Microsome; settings: liver microsomes, read-out: CLH
[5] = Efflux ratio of apparent permeability in human Caco2 cells at 10 uM at pH 7.4; format: ADME, cell-based; settings: Caco-2, pH 7.4
[6] = GSH reactivity in PBS buffer assessed as half life at pH 7.4 and 37 degree C in presence of glutathione; format: physicochemical; settings: PBS buffer with glutathione
[7] = Clearance in Han Wistar rat at 2 umol/kg, po or 1 umol/kg, iv; settings: in vivo
[8] = Volume of distribution at steady state in Han Wistar rat at 2 umol/kg, po or 1 umol/kg, iv; settings: in vivo
[9] = system: GTPase KRas (Homo sapiens), P01116 [G12C]; assay: Binding affinity to KRAS G12C mutant in human […] cell lysate assessed as trypsin-mediated biotinylated cysteine residues digestion by measuring reduction in protein level at 4 uM prelabeled with iodoacetamide desthiobiotin followed by compound treatment measured after 4 hrs by MS analysis relative to control; format: subcellular
Lu-99 cell line [10] = assay: Antiproliferative activity against human LU99 cells expressing KRAS G12C mutant assessed as cell growth inhibition measured after 5 days by sytox green dye staining based 2D proliferation assay; format: functional
SW1573 [11] = assay: Antiproliferative activity against human SW1573 cells expressing KRAS G12C mutant assessed as cell growth inhibition cultured in soft agar medium containing compounds and supplemented with fresh medium for every 7 days by 3D soft agar proliferation assay; format: functional, cell-based
SW1573 [12] = assay: Antiproliferative activity against human SW1573 cells harboring KRAS G12C mutant assessed as cell growth inhibition measured after 5 days by sytox green dye staining based 2D proliferation assay; format: functional
[13] = system: GTPase KRas (Homo sapiens), P01116 [G12C]; assay: Inhibition of KRAS G12C mutant in human H358 cells assessed as […] at 1 uM measured after 6 hrs by TQ-UPLC/MS analysis relative to control; format: cell-based
[14] = system: GTPase KRas (Homo sapiens), P01116 [G12C]; assay: Inhibition of KRAS G12C mutant expressed in human HCC44 cells assessed as […] at 1 uM measured after 6 hrs by TQ-UPLC/MS analysis relative to control; format: cell-based
[15] = system: GTPase KRas (Homo sapiens), P01116 [G12C]; assay: Inhibition of KRAS G12C mutant expressed in human H1792 cells assessed as […] at 1 uM measured after 6 hrs by TQ-UPLC/MS analysis relative to control; format: cell-based
[16] = system: GTPase KRas (Homo sapiens), P01116 [G12C]; assay: Inhibition of KRAS G12C mutant expressed in human H23 cells assessed as […] at 1 uM measured after 6 hrs by TQ-UPLC/MS analysis relative to control; format: cell-based
[17] = system: GTPase KRas (Homo sapiens), P01116 [G12C]; assay: Inhibition of KRAS G12C mutant expressed in human Calu1 cells assessed as […] at 1 uM measured after 6 hrs by TQ-UPLC/MS analysis relative to control; format: cell-based
[18] = system: GTPase KRas (Homo sapiens), P01116 [G12C]; assay: Inhibition of KRAS G12C mutant expressed in human HOP62 cells assessed as […] at 1 uM measured after 6 hrs by TQ-UPLC/MS analysis relative to control; format: cell-based
[19] = system: GTPase KRas (Homo sapiens), P01116 [G12C]; assay: Inhibition of KRAS G12C mutant expressed in human LU65 cells assessed as […] at 1 uM measured after 6 hrs by TQ-UPLC/MS analysis relative to control; format: cell-based
[20] = system: GTPase KRas (Homo sapiens), P01116 [G12C]; assay: Inhibition of KRAS G12C mutant expressed in human H2122 cells assessed as […] at 1 uM measured after 6 hrs by TQ-UPLC/MS analysis relative to control; format: cell-based
[21] = system: GTPase KRas (Homo sapiens), P01116 [G12C]; assay: Inhibition of KRAS G12C mutant expressed in human H1373 cells assessed as […] at 1 uM measured after 6 hrs by TQ-UPLC/MS analysis relative to control; format: cell-based
[22] = system: GTPase KRas (Homo sapiens), P01116 [G12C]; assay: Inhibition of KRAS G12C mutant expressed in human LU99 cells assessed as […] at 1 uM measured after 6 hrs by TQ-UPLC/MS analysis relative to control; format: cell-based
[23] = system: GTPase KRas (Homo sapiens), P01116 [G12C]; assay: Inhibition of KRAS G12C mutant expressed in human SW1573 cells assessed as […] at 1 uM measured after 6 hrs by TQ-UPLC/MS analysis relative to control; format: cell-based
[24] = target: GTPase KRas (Homo sapiens) (UniProt P01116); assay: Inhibition of wild type KRAS expressed in human PC9 cells assessed as […] at 1 uM measured after 6 hrs by TQ-UPLC/MS analysis; format: cell-based
[25] = system: GTPase KRas (Homo sapiens), P01116 [UNDEFINED MUTATION]; assay: Inhibition of KRas mutant expressed in human A549 cells assessed as […] at 1 uM measured after 6 hrs by TQ-UPLC/MS analysis; format: cell-based
[26] = system: GTPase KRas (Homo sapiens), P01116 [UNDEFINED MUTATION]; assay: Inhibition of KRas mutant expressed in human H2291 cells assessed as […] at 1 uM measured after 6 hrs by TQ-UPLC/MS analysis; format: cell-based
MIA PaCa-2 = assay: Antitumor activity against human MIAPaCa2 cells harboring KRAS G12C mutant xenografted in orally dosed athymic NU-Fox1nu nude mouse assessed as tumor regression administered daily for 2 weeks and further treated for 3 weeks; format: functional, organism-based
in vivo = settings: Han Wistar, rat, po, 2 umol/kg

SMILES: C=CC(=O)N1C[C@@H]2C(=O)N(C)c3cnc4c(F)c(-c5c(O)cccc5F)c(Cl)cc4c3N2C[C@H]1C
- growth inhibition (GI) (Lu-99 cell line [1]): inactive
- inhibition (Mus musculus): Active
- IC50 (GTPase KRas): < 5 nM
- logD [2]: 3.4
- hepatocyte intrinsic clearance [3]: 11 µL/min
- microsomal CLint [4]: 21 µL/min/mg
- efflux ratio at 10 µM [5]: 1.1
- half-life [6]: 5.57 h
- clearance [7]: 4 mL/min/kg
- Vd [8]: 1 L/kg
- fold change (FC) [9]: > 2
- growth inhibition (GI) (Lu-99 cell line [10]): inactive
- growth inhibition (GI) (SW1573 [11]): inactive
- growth inhibition (GI) (SW1573 [12]): inactive
- inhibition [13]: 82%
- inhibition [14]: 79%
- inhibition [15]: 75%
- inhibition [16]: 80%
- inhibition [17]: 73%
- inhibition [18]: 89%
- inhibition [19]: 84%
- inhibition [20]: 74%
- inhibition [21]: 86%
- inhibition [22]: 100%
- inhibition [23]: 70%
- inhibition [24]: inactive
- inhibition [25]: inactive
- inhibition [26]: inactive
- Activity (MIA PaCa-2): Dose-dependent effect
- bioavailability (in vivo): 94%
